Target: T1, GPx4 bound to DPC micelles (Homo sapiens, UniProt P36969, U73G)
T1 construct: Truncated U46G-GPx4 with a TEV cleavable poly-histidine tag was inserted into vector; poly-histidine tag with TEV cleavage site; host or cells: BL21 (DE3) E. coli
T1 sequence (P36969 1-170 isoform P36969-2 U46G): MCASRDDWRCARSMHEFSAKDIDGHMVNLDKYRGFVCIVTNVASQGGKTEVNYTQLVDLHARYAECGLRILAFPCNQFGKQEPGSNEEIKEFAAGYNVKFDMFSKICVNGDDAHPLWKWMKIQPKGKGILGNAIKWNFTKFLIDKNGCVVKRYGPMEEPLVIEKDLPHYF
Test: 15N-HSQC CSP experiment with GPx4 bound to DPC micelles
Type: binding
Conditions: 400 μM analogue, 0.4% DMSO
Source text: To investigate whether or not these fragments could be built upon and progress to higher affinity binders and potentially inhibitors, a secondary screening approach was used to find analogues of the original fragments. A fragment growing approach was followed due to the high success rate of improving fragment hits.[61],[62] Fragment growing improves binding affinity, or other properties, with the addition of different substitutions and/or expansions.[20] Commercially available analogues of fragments 1 and 5 were found by searching the ChemBridge (San Diego, CA) catalog for analogues with a 60% similarity for fragment 1 and a 70% similarity for fragment 5. A subset of analogues for each fragment was purchased and tested. These two fragments were the main focus for fragment progression due to their observed ability to partition into bilayers and bind to inhibitory regions of membrane-bound GPx4. Fragment 6 was not investigated further since it resides mainly in the water core of the mmRM model, and while interesting, it falls outside of our focus for this study. While all the five selected fragment 1 analogues produced reasonable CSPs in the membrane interface of GPx4; none produced titration curves that indicated enhanced binding (Table S1). […]

O=c1oc2c(-c3ccc(Cl)c(Cl)c3)cc(O)cc2s1 [Analog 5.5]
CSPs of GPx4 bound to DPC micelles: reasonable CSPs were observed
